Measurements taken from BindingDB's records for doi:10.1016/j.ejmech.2023.115410 (Jawaharlal Nehru University, 2023).

Key:
[1] = Inhibition of […] Influenza A Taiwan 3446 2002(H3N2) neuraminidase infected in dog MDCK cells using MU-NANA as substrate assessed as reduction in viral replication incubated for 72 hrs by spectrofluorometric analysis
[2] = Inhibition of avian Influenza A virus SN 33 (H1N1) neuraminidase infected in dog MDCK cells using MU-NANA as substrate assessed as reduction in viral replication incubated for 72 hrs by spectrofluorometric analysis

SMILES | IC50 [1] [nM] | IC50 [2] [nM]
CC(=O)N[C@H]1[C@H]([C@H](O)[C@H](O)CO)OC(C(=O)O)=C[C@@H]1NC(=N)NC(=O)CCc1ccc2ccccc2c1 | 67 | 75
CC(=O)N[C@H]1[C@H]([C@H](O)[C@H](O)CO)OC(C(=O)O)=C[C@@H]1NC(=N)NC(=O)CSc1ccc2ccccc2c1 | 25 | 20
